pIC50: −log10 of the molar value. Counter-ions that a name gives are not always drawn.
target: Autotaxin (Homo sapiens (Human), UniProt Q13822); test: Autotaxin LPC Cascade Assay; format: biochemical; conditions: Autotaxin 5 nM, LPC 100 μM, choline oxidase/HRP/Ampliflu Red fluorescence read-out, 2% DMSO, RT; read-out: IC50 ATX Activity
In short: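 Choline liberated from LPC by autotaxin during 1 h, after a 10-min RT compound preincubation, was converted through choline oxidase/HRP to a fluorescent Ampliflu Red product.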

| Structure (SMILES) | pIC50 |
| --- | --- |
| CC(C)[C@@H](NC(=O)c1cc(C(F)(F)F)ccc1F)C(=O)N1CCC2(CC1)C(=O)N(C)C(=O)N2C1CCOCC1 [Example 77, (R)-2-Fluoro-N-(3-methyl-1-(3-methyl-2,4-dioxo-1-(tetrahydro-2H-pyran-4-yl)-1,3,8-triazaspiro[4.5]decan-8-yl)-1-oxobutan-2-yl)-5-(trifluoromethyl)benzamide] | 6.00 to 6.30 |
| CC(C)[C@@H](NC(=O)c1cc(C(F)(F)F)ccc1F)C(=O)N1CCC2(CC1)C(=O)N(C)C(=O)N2[C@@H](C)c1ccccc1 [Example 78, 2-Fluoro-N—((R)-3-methyl-1-(3-methyl-2,4-dioxo-1-((S)-1-phenylethyl)-1,3,8-triazaspiro[4.5]decan-8-yl)-1-oxobutan-2-yl)-5-(trifluoromethyl)benzamide] | ≤ 6.00 |
| CC(C)[C@@H](NC(=O)c1cc(C(F)(F)F)ccc1F)C(=O)N1CCC2(CC1)C(=O)N(C)C(=O)N2CC1CCOCC1 [Example 79, (R)-2-Fluoro-N-(3-methyl-1-(3-methyl-2,4-dioxo-1-((tetrahydro-2H-pyran-4-yl)methyl)-1,3,8-triazaspiro[4.5]decan-8-yl)-1-oxobutan-2-yl)-5-(trifluoromethyl)benzamide] | 6.00 to 6.30 |
| CC(C)[C@@H](NC(=O)c1cc(C(F)(F)F)ccc1F)C(=O)N1CCC2(CC1)C(=O)N(C)C(=O)N2[C@H](C)c1ccccc1 [Example 80, 2-Fluoro-N—((R)-3-methyl-1-(3-methyl-2,4-dioxo-1-((R)-1-phenylethyl)-1,3,8-triazaspiro[4.5]decan-8-yl)-1-oxobutan-2-yl)-5-(trifluoromethyl)benzamide] | ≤ 6.00 |
| CC(C)[C@@H](NC(=O)c1cc(C(F)(F)F)ccc1F)C(=O)N1CCC2(CC1)C(=O)N(C)C(=O)N2c1ccc(OCC2CNC2)cc1 [Example 81, (R)—N-(1-(1-(4-(Azetidin-3-ylmethoxy)phenyl)-3-methyl-2,4-dioxo-1,3,8-triazaspiro[4.5]decan-8-yl)-3-methyl-1-oxobutan-2-yl)-2-fluoro-5-(trifluoromethyl)benzamide trifluoroacetic Acid Salt] | ≤ 6.00 |
| CC(C)[C@@H](NC(=O)c1cc(C(F)(F)F)ccc1F)C(=O)N1CCC2(CC1)C(=O)N(C)C(=O)N2c1ccc(OCC#N)cc1 [Example 82, (R)—N-(1-(1-(4-(cyanomethoxy)phenyl)-3-methyl-2,4-dioxo-1,3,8-triazaspiro[4.5]decan-8-yl)-3-methyl-1-oxobutan-2-yl)-2-fluoro-5-(trifluoromethyl)benzamide] | 6.00 to 6.30 |
| CC(C)[C@@H](NC(=O)c1cc(C(F)(F)F)ccc1F)C(=O)N1CCC2(CC1)C(=O)N(C)C(=O)N2c1ccc(OCC2COC2)cc1 [Example 83, (R)-2-Fluoro-N-(3-methyl-1-(3-methyl-1-(4-(oxetan-3-ylmethoxy)phenyl)-2,4-dioxo-1,3,8-triazaspiro[4.5]decan-8-yl)-1-oxobutan-2-yl)-5-(trifluoromethyl)benzamide] | > 6.30 |
| CC(C)[C@@H](NC(=O)c1cc(C(F)(F)F)ccc1F)C(=O)N1CCC2(CC1)C(=O)N(C)C(=O)N2c1ccc(OCCO)cc1 [Example 84, (R)-2-Fluoro-N-(1-(1-(4-(2-hydroxyethoxy)phenyl)-3-methyl-2,4-dioxo-1,3,8-triazaspiro[4.5]decan-8-yl)-3-methyl-1-oxobutan-2-yl)-5-(trifluoromethyl)benzamide] | > 6.30 |
| CC(C)[C@@H](NC(=O)c1cc(C(F)(F)F)ccc1F)C(=O)N1CCC2(CC1)C(=O)N(C)C(=O)N2c1ccc(NC2CNC2)cc1 [Example 86, (R)—N-(1-(1-(4-(Azetidin-3-ylamino)phenyl)-3-methyl-2,4-dioxo-1,3,8-triazaspiro[4.5]decan-8-yl)-3-methyl-1-oxobutan-2-yl)-2-fluoro-5-(trifluoromethyl)benzamide trifluoroacetic Acid Salt] | ≤ 6.00 |
| CC(C)[C@@H](NC(=O)c1cc(C(F)(F)F)ccc1F)C(=O)N1CCC2(CC1)C(=O)N(C)C(=O)N2c1ccc(NC2COC2)cc1 [Example 87, (R)-2-Fluoro-N-(3-methyl-1-(3-methyl-1-(4-(oxetan-3-ylamino)phenyl)-2,4-dioxo-1,3,8-triazaspiro[4.5]decan-8-yl)-1-oxobutan-2-yl)-5-(trifluoromethyl)benzamide] | ≤ 6.00 |
| CC(C)[C@@H](NC(=O)c1cc(C(F)(F)F)ccc1F)C(=O)N1CCC2(CC1)C(=O)N(C)C(=O)N2Cc1ccc(C#N)cc1 [Example 88, (R)—N-(1-(1-(4-Cyanobenzyl)-3-methyl-2,4-dioxo-1,3,8-triazaspiro[4.5]decan-8-yl)-3-methyl-1-oxobutan-2-yl)-2-fluoro-5-(trifluoromethyl)benzamide] | > 6.30 |
| CC(C)[C@@H](NC(=O)c1cc(C(F)(F)F)ccc1F)C(=O)N1CCC2(CC1)C(=O)N(C)C(=O)N2Cc1ccccc1 [Example 89, (R)—N-(1-(1-Benzyl-3-methyl-2,4-dioxo-1,3,8-triazaspiro[4.5]decan-8-yl)-3-methyl-1-oxobutan-2-yl)-2-fluoro-5-(trifluoromethyl)benzamide] | > 6.30 |
| CC(C)[C@@H](NC(=O)c1cc(C(F)(F)F)ccc1F)C(=O)N1CCC2(CC1)C(=O)N(C)C(=O)N2Cc1ccc(F)cc1 [Example 90, (R)-2-Fluoro-N-(1-(1-(4-fluorobenzyl)-3-methyl-2,4-dioxo-1,3,8-triazaspiro[4.5]decan-8-yl)-3-methyl-1-oxobutan-2-yl)-5-(trifluoromethyl)benzamide] | > 6.30 |
| COc1ccc(CN2C(=O)N(C)C(=O)C23CCN(C(=O)[C@H](NC(=O)c2cc(C(F)(F)F)ccc2F)C(C)C)CC3)cc1 [Example 91, (R)-2-Fluoro-N-(1-(1-(4-methoxybenzyl)-3-methyl-2,4-dioxo-1,3,8-triazaspiro[4.5]decan-8-yl)-3-methyl-1-oxobutan-2-yl)-5-(trifluoromethyl)benzamide] | > 6.30 |
| CC(C)[C@@H](NC(=O)c1cc(C(F)(F)F)ccc1F)C(=O)N1CCC2(CC1)C(=O)N(C)C(=O)N2C(C)c1ccccc1 (stereo partly drawn) [Example 92, 2-Fluoro-N-((2R)-3-methyl-1-(3-methyl-2,4-dioxo-1-(1-phenylethyl)-1,3,8-triazaspiro[4.5]decan-8-yl)-1-oxobutan-2-yl)-5-(trifluoromethyl)benzamide] | 6.00 to 6.30 |
| CC(C)[C@@H](NC(=O)c1cc(C(F)(F)F)ccc1F)C(=O)N1CCC2(CC1)C(=O)N(C)C(=O)N2Cc1ccc(S(C)(=O)=O)cc1 [Example 93, (R)-2-Fluoro-N-(3-methyl-1-(3-methyl-1-(4-(methylsulfonyl)benzyl)-2,4-dioxo-1,3,8-triazaspiro[4.5]decan-8-yl)-1-oxobutan-2-yl)-5-(trifluoromethyl)benzamide] | ≤ 6.00 |
| COc1cc(CN2C(=O)N(C)C(=O)C23CCN(C(=O)[C@H](NC(=O)c2cc(C(F)(F)F)ccc2F)C(C)C)CC3)ccn1 [Example 94, (R)-2-Fluoro-N-(1-(1-((2-methoxypyridin-4-yl)methyl)-3-methyl-2,4-dioxo-1,3,8-triazaspiro[4.5]decan-8-yl)-3-methyl-1-oxobutan-2-yl)-5-(trifluoromethyl)benzamide] | > 6.30 |
| Cc1cc(CN2C(=O)N(C)C(=O)C23CCN(C(=O)[C@H](NC(=O)c2cc(C(F)(F)F)ccc2F)C(C)C)CC3)ccn1 [Example 95, (R)-2-Fluoro-N-(3-methyl-1-(3-methyl-1-((2-methylpyridin-4-yl)methyl)-2,4-dioxo-1,3,8-triazaspiro[4.5]decan-8-yl)-1-oxobutan-2-yl)-5-(trifluoromethyl)benzamide] | 6.00 to 6.30 |
| CC(C)[C@@H](NC(=O)c1cc(C(F)(F)F)ccc1F)C(=O)N1CCC2(CC1)C(=O)N(C)C(=O)N2Cc1ccc2c(c1)OCCO2 [Example 96, (R)—N-(1-(1-((2,3-Dihydrobenzo[b][1,4]dioxin-6-yl)methyl)-3-methyl-2,4-dioxo-1,3,8-triazaspiro[4.5]decan-8-yl)-3-methyl-1-oxobutan-2-yl)-2-fluoro-5-(trifluoromethyl)benzamide] | > 6.30 |
| COc1ccc(CN2C(=O)N(C)C(=O)C23CCN(C(=O)[C@H](NC(=O)c2cc(C(F)(F)F)ccc2F)C(C)C)CC3)cn1 [Example 97, (R)-2-Fluoro-N-(1-(1-((6-methoxypyridin-3-yl)methyl)-3-methyl-2,4-dioxo-1,3,8-triazaspiro[4.5]decan-8-yl)-3-methyl-1-oxobutan-2-yl)-5-(trifluoromethyl)benzamide] | > 6.30 |
| CC(C)[C@@H](NC(=O)c1cc(C(F)(F)F)ccc1F)C(=O)N1CCC2(CC1)C(=O)N(C)C(=O)N2Cc1ccc2[nH]ncc2c1 [Example 98, (R)—N-(1-(1-((1H-Indazol-5-yl)methyl)-3-methyl-2,4-dioxo-1,3,8-triazaspiro[4.5]decan-8-yl)-3-methyl-1-oxobutan-2-yl)-2-fluoro-5-(trifluoromethyl)benzamide] | > 6.30 |
| CC(C)[C@@H](NC(=O)c1cc(C(F)(F)F)ccc1F)C(=O)N1CCC2(CC1)C(=O)N(C)C(=O)N2Cc1ccc(Cl)cc1 [Example 99, (R)—N-(1-(1-(4-Chlorobenzyl)-3-methyl-2,4-dioxo-1,3,8-triazaspiro[4.5]decan-8-yl)-3-methyl-1-oxobutan-2-yl)-2-fluoro-5-(trifluoromethyl)benzamide] | > 6.30 |
| CC(C)[C@@H](NC(=O)c1cc(C(F)(F)F)ccc1F)C(=O)N1CCC2(CC1)C(=O)N(C)C(=O)N2Cc1ccc2nccnc2c1 [Example 100, (R)-2-Fluoro-N-(3-methyl-1-(3-methyl-2,4-dioxo-1-(quinoxalin-6-ylmethyl)-1,3,8-triazaspiro[4.5]decan-8-yl)-1-oxobutan-2-yl)-5-(trifluoromethyl)benzamide] | > 6.30 |
| CC(C)[C@@H](NC(=O)c1cc(C(F)(F)F)ccc1F)C(=O)N1CCC2(CC1)C(=O)N(C)C(=O)N2Cc1cccc(C#N)c1 [Example 101, (R)—N-(1-(1-(3-Cyanobenzyl)-3-methyl-2,4-dioxo-1,3,8-triazaspiro[4.5]decan-8-yl)-3-methyl-1-oxobutan-2-yl)-2-fluoro-5-(trifluoromethyl)benzamide] | > 6.30 |
